# Results taken from patent US20090081170A1, “Cardiac progenitor cells” (priority 2007, published 2009).
# Where a SMILES comes first, the peptide text is derived from it.
# How the values were obtained:
# [1] = tested on: Tβ4shNk embryo hearts at E14.5; test: AcSDKP intraperitoneal injection into pregnant females, rescue of Tβ4 knockdown embryo hearts; format: in vivo, mouse; conditions: E14.5 Tβ4shNk embryos
# From the text: To investigate a role for Tβ4 during heart development and to provide insight into the mechanism by which the peptide mediates adult cardiac repair, we generated mouse embryos with heart-specific Tβ4 deficiency using a novel strategy of transgenic conditional RNA interference (RNAi; as described above). Floxed Tβ4 short hairpin RNA (Tβ4shRNAflox) mice were crossed with two strains of Cre-expressing mice: Nkx2-5^CreKI (designated Tβ4shNk), which directs Cre expression throughout the majority of cardiomyocytes, and MLC2vCreKI (designated Tβ4shMlc), which directs Cre expression specifically to ventricular cardiomyocytes. Tβ4shNk embryos were also observed to have thymic defects consistent not only with Cre expression driven by Nkx2-5 in the developing thymus, but also with the thymus representing an obvious source of Tβ4.
# We next investigated whether AcSDKP could rescue any of the vasculogenesis defects observed in the Tβ4 mutant hearts. […] This supports our interpretation of the primary phenotype in Tβ4 mutants. AcSDKP lacks actin binding function, rendering it unable to stimulate filamentous actin assembly and lamellipodia-based cell migration and consequently unable to rescue the EPDC defect. […]
# [2] = tested on: adult heart explants (adult EPDCs); test: Adult epicardial explant culture: EPDC outgrowth and differentiation; format: cell-based, mouse
# Description: A simple protocol for the outgrowth and differentiation of vasculogenic precursor cells (endothelial and vascular smooth muscle cells) from adult heart using Thymosin β4 to stimulate epicardial cell migration is described below.
# • 1. Coat 6-well plates with gelatin: pipette 2 ml 0.1% gelatin solution, allow to stand for 15 minutes and aspirate. Optionally, place coverslips into wells, prior to gelatin coating. • 2. Cull adult mouse by cervical dislocation. • 3. Using sterile forceps and scissors make a lateral incision in the centre of the abdomen and tear back the fur to expose the rib cage. • 4. Carefully cut upwards through the sternum and along the diaphragm, taking care not to cut into the heart. Pull back the ribs to reveal the heart. • 5. Remove the heart using forceps and dissect away the atria and major vessels, to leave right and left ventricles. • 6. Place tissue in a 60 mm tissue culture dish (non gelatin coated) containing 2 ml DPBS. Cut into quarters and allow blood to rinse from the tissue. Carefully aspirate away DPBS. Using a sterile scalpel, cut the heart into pieces of approximately 1 mm^3. Reproducible EPDC outgrowth strongly depends upon the size of the heart pieces (optimally 1 mm^3). Larger pieces will not adhere to permit sufficient migration while smaller pieces tend to dissociate completely and cardiomyocyte death precedes adherence and EPDC outgrowth. • 7. Divide heart pieces into 4 equal portions (1 adult heart is typically divided between 4 wells for optimal EPDC outgrowth). • 8. Pipette 2 ml of EPDC culture medium, supplemented with 100 ng/ml Tβ4, into each well to be used. • 9. Place 1 portion of heart tissue into the centre of each well and ensure that all pieces are submerged. • 10. Gently transfer the plate to a humidified 5% CO2 37° C. incubator. Maintain cultures with minimum disturbance to allow explants to adhere. No feeding is required for the first 72 hours. Minimal disturbance is absolutely essential for EPDC outgrowth. Explants adhere only tenuously in the first instance and disturbance in the first few days of culture will prevent adhesion or lead to detachment. Plates should be transferred extremely cautiously between incubator and microscope or culture hood. After sufficient EPDCs have emerged, explants attach more firmly but care is still required as detachment may easily occur. • 11. After 72 hours in culture, carefully transfer plate to culture hood, wash explants gently with DPBS and add 2 ml fresh EPDC medium containing 100 ng/ml Tβ4. Leave for a further 24 hours before assessment of cellular phenotype.
# • 1. Culture adult heart explants as described above. • 2. After 72 hours of culture, fix cells with 4% PFA for 10 minutes at room temperature. • 3. Wash cells twice with PBS. • 4. Permeabilise cells with 0.5% Triton X-100 in PBS for 5 minutes at room temperature. • 5. Wash cells twice with PBS. • 6. Block non-specific binding by incubating cells in BLOCK (1% BSA/10% sheep serum in PBS) for 1 hour at room temperature. • 7. Incubate cells with an appropriate dilution of primary antibody (epicardin, 1:100; SMalphaA, 1:700; Flk1, 1:100), or Procollagen type I, 1:100), in BLOCK. • 8. Wash cells 3 times using BLOCK. • 9. Incubate cells with the appropriate secondary antibody (epicardin: Cy3-conjugated anti-rabbit; SMalphaA: FITC-conjugated anti-mouse, 1:30; Procollagen type I: Alexa 488-conjugated anti-goat, 1:200; Flk1: Alexa 594-conjugated anti-rat, 1:200) diluted in BLOCK. • 10. Wash cells twice in PBS. • 11. Optionally, to stain nuclei, incubate with 5 ug/ml Hoechst in PBS for 5 minutes at room temperature. • 12. Wash cells twice in PBS. • 13. Mount coverslips onto microscope slides using 50% glycerol in PBS as mountant and visualize using a fluorescence microscope. […]
smiles,measurement,setting,value
"CC(=O)N[C@@H](CO)C(=O)N[C@@H](CC(=O)O)C(=O)N[C@@H](CCCCN)C(=O)N1CCC[C@H]1C(=O)O [AcSDKP, N-acetyl-seryl-aspartyllysyl-proline] (Ac-SDKP-OH)",rescue of the phenotype attributed to Tβ4 knockdown,[1],failed to rescue any of the phenotype
same,differentiated (Flk1-positive) endothelial cells,[2]; adult epicardial explants,striking increase
same,smooth muscle cells in treated cultures,"[2]; adult epicardial explants, data not shown",only very few smooth muscle cells observed
same,EPDC outgrowth from adult heart explants,"[2]; adult mouse heart explants, 8-12 weeks, vs untreated explants",unable to promote epicardial outgrowth beyond control levels
